Tests used:
[1] = test system: bermudagrass; assay: Test C pre-/postemergence herbicide test; format: in vivo, Cynodon dactylon
Procedure, shortened: (§1)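 Visual injury scores run from 0 (no effect) to 100 (complete control), assessed relative to untreated controls 12 to 14 days after treatment in the greenhouse. Chemicals were formulated in a non-phytotoxic solvent mixture with surfactant and applied to soil after planting or to emerged plants at the 1- to 4-leaf stage.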

[2] = test system: barnyardgrass; assay: Test A pre-/postemergence herbicide test; format: in vivo, Echinochloa crus-galli
Procedure, shortened: (§2)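 Pre: seeded sandy loam, directed soil spray, compound in non-phytotoxic solvent + surfactant. Post: 1–2-leaf plants (2–10 cm), sprayed to runoff. Greenhouse ~10 d; visual injury vs untreated, 0–100 scale.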

[3] = test system: redroot pigweed; assay: Test A pre-/postemergence herbicide test; format: in vivo, Amaranthus retroflexus
Procedure, shortened: as §2

[4] = test system: lambsquarters; assay: Test C pre-/postemergence herbicide test; format: in vivo, Chenopodium album
Procedure, shortened: as §1

[5] = test system: velvetleaf; assay: Test C pre-/postemergence herbicide test; format: in vivo, Abutilon theophrasti; settings: for Plant response rating, Velvetleaf: preemergence
Procedure, shortened: as §1

[6] = test system: morningglory; assay: Test A pre-/postemergence herbicide test; format: in vivo, Ipomoea spp.
Procedure, shortened: as §2

[7] = test system: morningglory; assay: Test C pre-/postemergence herbicide test; format: in vivo, Ipomoea coccinea; set-up: key to Plant response rating, Morningglory: 0 = no effect, 100 = complete control
Procedure, shortened: as §1

[8] = test system: common ragweed; assay: Test C pre-/postemergence herbicide test; format: in vivo, Ambrosia elatior; set-up: key to Plant response rating, Ragweed: 0 = no effect, 100 = complete control
Procedure, shortened: as §1

[9] = test system: rice; assay: Test C flooded paddy test; format: in vivo, Oryza sativa; settings: for Plant response rating, Rice: 500 g ai/ha, visual rating after 12 to 14 days
Procedure, shortened: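 Postemergence sprays applied to plants 2 to 18 cm tall (1- to 4-leaf stage); paddy species grown to 2-leaf stage under flooding. After 12 to 14 days in greenhouse, visual rating versus untreated controls on 0–100 scale (0 no effect, 100 complete control).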

[10] = test system: smallflower umbrella sedge; assay: Test C flooded paddy test; format: in vivo, Cyperus difformis; settings: for Plant response rating, Sedge, Umbrella: 500 g ai/ha, visual rating after 12 to 14 days
[11] = test system: large crabgrass; assay: Test C pre-/postemergence herbicide test; format: in vivo, Digitaria sanguinalis
Procedure, shortened: as §1

[12] = test system: giant foxtail; assay: Test C pre-/postemergence herbicide test; format: in vivo, Setaria faberi
Procedure, shortened: as §1

[13] = 125 g ai/ha, scale 0 (no effect) to 100 (complete control), visual, 12 to 14 days, preemergence
[14] = 250 g ai/ha, scale 0-100, preemergence
[15] = Preemergence, 500 g ai/ha, scale 0 to 100, 0 no effect, 100 complete control
[16] = Postemergence, 500 g ai/ha, 0 to 100 scale, 0 no effect, 100 complete control
[17] = Postemergence, 2000 g ai/ha, 0 to 100 scale, 0 no effect, 100 complete control
[18] = Preemergence, 2000 g ai/ha, visual rating, 0 to 100 scale (0 no effect, 100 complete control)
[19] = preemergence, 500 g ai/ha, visual injury, 0 to 100 scale (0 no effect, 100 complete control)
[20] = 62 g ai/ha, preemergence, scale 0 to 100
[21] = 125 g ai/ha, scale 0 (no effect) to 100 (complete control), visual, 12 to 14 days
[22] = 62 g ai/ha, scale 0 to 100 (0 no effect, 100 complete control)
[23] = 125 g ai/ha, scale 0 to 100 (0 no effect, 100 complete control)
[24] = 250 g ai/ha, scale of 0 to 100, 0 is no effect, 100 is complete control
[25] = scale 0 to 100 (0 no effect, 100 complete control)
[26] = 250 g ai/ha, scale 0 to 100 (0 no effect, 100 complete control), visual, 12 to 14 days, preemergence
[27] = Postemergence, 250 g ai/ha, 0 to 100 scale, 0 no effect, 100 complete control
[28] = Postemergence, 1000 g ai/ha, 0 to 100 scale, 0 no effect, 100 complete control
[29] = Preemergence, 1000 g ai/ha, visual rating, 0 to 100 scale (0 no effect, 100 complete control)
[30] = preemergence, 250 g ai/ha, visual injury, 0 to 100 scale (0 no effect, 100 complete control)

C=CCNC(=O)c1cccc(NC(=O)c2sc(C(C)(C)C)nc2CC)c1 [Compound 207]
Plant response rating, Bermudagrass ([1]; 62 g ai/ha, preemergence, scale 0 to 100, 0 no effect, 100 complete control): 50 | Plant response rating, Bermudagrass [1, 13]: 80 | Plant response rating, Bermudagrass [1, 14]: 100 | Bermudagrass plant response rating [1, 15]: 100 | Barnyardgrass plant response rating [2, 16]: 40 | Plant response rating, Barnyardgrass [2, 17]: 70 | Barnyardgrass plant response rating [2, 18]: 80 | Barnyardgrass plant response rating [2, 19]: 70 | Pigweed plant response rating [3, 16]: 30 | Plant response rating, Pigweed [3, 17]: 45 | Pigweed plant response rating [3, 18]: 100 | Pigweed plant response rating [3, 19]: 100 | Plant response rating, Lambsquarters [4, 20]: 90 | Plant response rating, Lambsquarters [4, 13]: 95 | Plant response rating, Lambsquarters [4, 14]: 95 | Lambsquarters plant response rating [4, 15]: 95 | Plant response rating, Velvetleaf ([5]; 62 g ai/ha, scale 0 to 100): 0 | Plant response rating, Velvetleaf [5, 21]: 10 | Plant response rating, Velvetleaf ([5]; 250 g ai/ha, scale 0-100): 40 | Velvetleaf plant response rating [5, 15]: 60 | Morningglory plant response rating [6, 16]: 20 | Plant response rating, Morningglory [6, 17]: 15 | Morningglory plant response rating [6, 18]: 85 | Morningglory plant response rating [6, 19]: 35 | Plant response rating, Morningglory [7, 20]: 0 | Plant response rating, Morningglory [7, 13]: 0 | Plant response rating, Morningglory [7, 14]: 0 | Morningglory plant response rating [7, 15]: 0 | Plant response rating, Ragweed [8, 20]: 40 | Plant response rating, Ragweed [8, 13]: 50 | Plant response rating, Ragweed [8, 14]: 60 | Ragweed plant response rating [8, 15]: 100 | Rice plant response rating [9, 22]: 30 | Rice plant response rating [9, 23]: 45 | Rice plant response rating [9, 24]: 50 | Plant response rating, Rice [9, 25]: 60 | Sedge, Umbrella plant response rating [10, 22]: 70 | Sedge, Umbrella plant response rating [10, 23]: 75 | Sedge, Umbrella plant response rating [10, 24]: 75 | Plant response rating, Sedge, Umbrella [10, 25]: 90 | Plant response rating, Crabgrass, Large [11, 20]: 80 | Plant response rating, Crabgrass, Large [11, 13]: 90 | Plant response rating, Crabgrass, Large [11, 14]: 100 | Crabgrass, Large plant response rating [11, 15]: 100 | Plant response rating, Foxtail, Giant [12, 20]: 0 | Plant response rating, Foxtail, Giant [12, 13]: 0 | Plant response rating, Foxtail, Giant [12, 14]: 10 | Foxtail, Giant plant response rating [12, 15]: 100

CCn1nc(C(C)(C)C)cc1C(=O)Nc1cccc(SC)c1 [Compound 131]
Plant response rating, Bermudagrass ([1]; 31 g ai/ha, scale 0 to 100, 0 no effect, 100 complete control, last section of Table C (species set of preemergence test)): 0 | Plant response rating (0 = no effect, 100 = complete control), Bermudagrass ([1]; 62 g ai/ha, preemergence): 15 | Plant response rating, Bermudagrass [1, 13]: 90 | Plant response rating, Bermudagrass [1, 26]: 95 | Barnyardgrass plant response rating [2, 27]: 25 | Plant response rating, Barnyardgrass [2, 28]: 60 | Barnyardgrass plant response rating [2, 29]: 50 | Barnyardgrass plant response rating [2, 30]: 45 | Pigweed plant response rating [3, 27]: 45 | Plant response rating, Pigweed [3, 28]: 75 | Pigweed plant response rating [3, 29]: 90 | Pigweed plant response rating [3, 30]: 40 | Plant response rating (0 = no effect, 100 = complete control), Lambsquarters ([4]; 62 g ai/ha, preemergence): 95 | Plant response rating, Lambsquarters [4, 13]: 100 | Plant response rating, Velvetleaf [5, 21]: 15 | Morningglory plant response rating [6, 27]: 15 | Plant response rating, Morningglory [6, 28]: 15 | Morningglory plant response rating [6, 29]: 35 | Morningglory plant response rating [6, 30]: 15 | Plant response rating (0 = no effect, 100 = complete control), Morningglory ([7]; 62 g ai/ha, preemergence): 0 | Plant response rating, Morningglory [7, 13]: 0 | Plant response rating (0 = no effect, 100 = complete control), Ragweed ([8]; 62 g ai/ha, preemergence): 40 | Plant response rating, Ragweed [8, 13]: 50 | Rice plant response rating [9, 22]: 0 | Rice plant response rating [9, 23]: 0 | Rice plant response rating [9, 24]: 0 | Plant response rating, Rice [9, 25]: 10 | Sedge, Umbrella plant response rating [10, 22]: 55 | Sedge, Umbrella plant response rating [10, 23]: 65 | Sedge, Umbrella plant response rating [10, 24]: 70 | Plant response rating, Sedge, Umbrella [10, 25]: 80 | Plant response rating (0 = no effect, 100 = complete control), Crabgrass, Large ([11]; 62 g ai/ha, preemergence): 45 | Plant response rating, Crabgrass, Large [11, 13]: 90 | Plant response rating, Crabgrass, Large [11, 26]: 90 | Plant response rating (0 = no effect, 100 = complete control), Foxtail, Giant ([12]; 62 g ai/ha, preemergence): 20 | Plant response rating, Foxtail, Giant [12, 13]: 20 | Plant response rating, Foxtail, Giant [12, 26]: 45

From patent US20060069132A1, “Azolecarboxamide herbicides” (priority 2004, published 2006)
